Test results published in ChEMBL document CHEMBL1152232, “Muscarinic acetylcholine receptor antagonists: SAR and optimization of tyrosine ureas” (Bioorg Med Chem Lett, 2008).
pIC50: −log10 of the molar value.

What was measured:
[1] = target: T1, Muscarinic acetylcholine receptor M1 (Homo sapiens, UniProt P11229); test: Antagonist activity at human recombinant muscarinic M1 receptor expressed in CHO cells assessed as inhibition of acetylcholine-induced intracellular Ca2+ mobilization by FLIPR assay; format: functional, cell-based; conditions: for Kb: read-out: pA2 (converted)
T1 sequence (P11229 whole entry): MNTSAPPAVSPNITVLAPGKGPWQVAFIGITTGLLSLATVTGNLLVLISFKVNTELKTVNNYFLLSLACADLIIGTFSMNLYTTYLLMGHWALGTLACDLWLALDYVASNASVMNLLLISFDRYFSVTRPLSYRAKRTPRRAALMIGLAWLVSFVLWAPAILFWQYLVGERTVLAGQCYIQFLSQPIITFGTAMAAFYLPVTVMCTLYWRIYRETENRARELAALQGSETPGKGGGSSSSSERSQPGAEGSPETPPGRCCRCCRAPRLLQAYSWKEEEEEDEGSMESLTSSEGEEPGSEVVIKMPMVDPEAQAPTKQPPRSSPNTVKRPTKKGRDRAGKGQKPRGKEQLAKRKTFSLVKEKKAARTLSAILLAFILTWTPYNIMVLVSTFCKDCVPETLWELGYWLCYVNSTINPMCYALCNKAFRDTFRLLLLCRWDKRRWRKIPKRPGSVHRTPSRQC

[2] = target: Muscarinic acetylcholine receptor M3 (Homo sapiens, UniProt P20309); test: Antagonist activity at human recombinant muscarinic M3 receptor expressed in CHO cells assessed as inhibition of acetylcholine-induced intracellular Ca2+ mobilization by FLIPR assay; format: functional, cell-based; conditions: for Kb: read-out: pA2 (converted)
[3] = target: T2, Muscarinic acetylcholine receptor M2 (Homo sapiens, UniProt P08172); test: Antagonist activity at human recombinant muscarinic M2 receptor expressed in CHO cells coexpressing chimeric G protein Gqi5 assessed as inhibition of acetylcholine-induced intracellular Ca2+ mobilization by FLIPR assay; format: functional, cell-based; conditions: for Kb: read-out: pA2 (converted)
T2 sequence (P08172 whole entry): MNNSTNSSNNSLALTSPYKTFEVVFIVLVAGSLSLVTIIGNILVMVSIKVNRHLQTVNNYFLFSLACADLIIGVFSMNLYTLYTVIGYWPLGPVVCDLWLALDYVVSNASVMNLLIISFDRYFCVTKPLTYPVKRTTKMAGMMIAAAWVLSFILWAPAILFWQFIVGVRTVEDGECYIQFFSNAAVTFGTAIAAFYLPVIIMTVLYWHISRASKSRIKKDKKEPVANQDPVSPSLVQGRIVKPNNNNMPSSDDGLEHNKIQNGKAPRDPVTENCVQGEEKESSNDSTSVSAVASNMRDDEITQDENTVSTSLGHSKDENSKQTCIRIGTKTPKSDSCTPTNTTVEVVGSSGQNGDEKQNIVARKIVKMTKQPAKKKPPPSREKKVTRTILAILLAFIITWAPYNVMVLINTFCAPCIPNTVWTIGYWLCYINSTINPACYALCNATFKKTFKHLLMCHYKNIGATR

[4] = target: Muscarinic acetylcholine receptor M1 and M3 (Homo sapiens) (UniProt P20309+P11229); test: Selectivity for human recombinant muscarinic M3 receptor over human recombinant muscarinic M1 receptor
[5] = target: Muscarinic acetylcholine receptors; M2 & M3 (Homo sapiens) (UniProt P20309+P08172); test: Selectivity for human recombinant muscarinic M3 receptor over human recombinant muscarinic M2 receptor
Chain of Muscarinic acetylcholine receptors; M2 & M3 (Homo sapiens) (P20309 whole entry, looked up, one chain of several): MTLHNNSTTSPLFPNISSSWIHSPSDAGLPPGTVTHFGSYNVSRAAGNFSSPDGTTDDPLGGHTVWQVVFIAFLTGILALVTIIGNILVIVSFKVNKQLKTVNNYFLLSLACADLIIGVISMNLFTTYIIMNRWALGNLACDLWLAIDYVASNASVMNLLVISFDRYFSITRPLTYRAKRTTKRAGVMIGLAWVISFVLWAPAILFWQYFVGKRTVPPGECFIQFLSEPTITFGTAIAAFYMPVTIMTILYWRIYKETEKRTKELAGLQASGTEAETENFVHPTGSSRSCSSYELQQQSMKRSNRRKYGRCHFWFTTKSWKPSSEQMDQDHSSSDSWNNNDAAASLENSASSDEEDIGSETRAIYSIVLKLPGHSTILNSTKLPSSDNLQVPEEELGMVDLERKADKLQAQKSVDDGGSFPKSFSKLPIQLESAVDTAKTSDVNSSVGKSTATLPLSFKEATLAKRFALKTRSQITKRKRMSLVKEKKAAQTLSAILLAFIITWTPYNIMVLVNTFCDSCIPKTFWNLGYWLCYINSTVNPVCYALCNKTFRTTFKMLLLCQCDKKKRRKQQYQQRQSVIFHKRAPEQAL

Chain of Muscarinic acetylcholine receptor M3 (P20309 whole entry): as the sequence (P20309 whole entry, looked up, one chain of several) above
Chain of Muscarinic acetylcholine receptor M1 and M3 (Homo sapiens) (P20309 whole entry, looked up, one chain of several): as above

| pIC50 [1] | pIC50 [2] | pIC50 [3] | Kb [1] [nM] | Kb [2] [nM] | Kb [3] [nM] | Selectivity ratio [4] | Selectivity ratio [5] | Structure (SMILES) |
| --- | --- | --- | --- | --- | --- | --- | --- | --- |
| 6.60 | 8.20 | 7.40 | – | – | – | – | – | CCOC(=O)c1ccc(NC(=O)N[C@@H](Cc2ccc(O)cc2)C(=O)N[C@H]2CC[N+](C)(Cc3ccc(O)cc3)C2)cc1 (some centres undefined) |
| – | – | – | 79.4 | 0.631 | 3.98 | – | – | CC(C)NC(=O)c1ccc(NC(=O)N[C@@H](Cc2ccc(O)cc2)C(=O)N[C@H]2CCC[N+](C)(Cc3ccc(O)cc3)C2)cc1 (some centres undefined) |
| < 5.50 | 7.80 | 6.20 | – | – | – | 100 | 10 | CCOC(=O)c1ccc(NC(=O)N[C@@H](Cc2ccc(O)cc2)C(=O)NC2CCN(Cc3cccc(C(F)(F)F)c3)C2)cc1 (some centres undefined) |
| 8.00 | 7.90 | 8.60 | – | – | – | – | – | CCOC(=O)c1ccc(NC(=O)N[C@@H](Cc2ccc(C(=O)c3ccccc3)cc2)C(=O)N[C@H]2CC[N+](C)(Cc3ccc4c(c3)OCO4)C2)cc1 (some centres undefined) |
| 6.20 | 7.60 | 7.00 | – | – | – | 100 | 10 | CCOC(=O)c1ccc(NC(=O)N[C@@H](Cc2ccc(O)cc2)C(=O)NC2CCN(CC3CC3)C2)cc1 (some centres undefined) |
| – | – | – | – | – | – | 100 | 10 | CCOC(=O)c1ccc(NC(=O)N[C@@H](Cc2ccc(O)cc2)C(=O)NC2CCN(Cc3ccc(O)cc3)C2)cc1 (mixture of isomers) |
| < 5.50 | 6.30 | < 5.50 | – | – | – | – | – | N#Cc1ccc(CN2CCC(NC(=O)[C@H](Cc3ccc(O)cc3)NC(=O)Nc3ccc(C(=O)Nc4ccccc4)cc3)C2)cc1 (some centres undefined) |
| – | – | – | 158 | 2 | 6.31 | – | – | Cc1noc(-c2ccc(NC(=O)N[C@@H](Cc3ccc(O)cc3)C(=O)N[C@H]3CCC[N+](C)(Cc4ccc(O)cc4)C3)cc2)n1 (some centres undefined) |
| 7.60 | 8.10 | 8.40 | – | – | – | – | – | CCOC(=O)c1ccc(NC(=O)N[C@@H](Cc2cccc(Cl)c2)C(=O)N[C@H]2CC[N+](C)(Cc3ccc4c(c3)OCO4)C2)cc1 (some centres undefined) |
| 7.30 | 7.50 | 8.00 | – | – | – | – | – | CCOC(=O)c1ccc(NC(=O)N[C@@H](Cc2ccc(C(F)(F)F)cc2)C(=O)N[C@H]2CC[N+](C)(Cc3ccc4c(c3)OCO4)C2)cc1 (some centres undefined) |
| 5.60 | 7.60 | 6.50 | – | – | – | 100 | 10 | CCOC(=O)c1ccc(NC(=O)N[C@@H](Cc2ccc(O)cc2)C(=O)NC2CCN(Cc3cccc(OC)c3)C2)cc1 (some centres undefined) |
| 7.10 | 7.40 | 8.30 | – | – | – | – | – | CCOC(=O)c1ccc(NC(=O)N[C@@H](Cc2ccc(OC)cc2)C(=O)N[C@H]2CC[N+](C)(Cc3ccc4c(c3)OCO4)C2)cc1 (some centres undefined) |
| < 5.50 | 6.00 | < 5.50 | – | – | – | – | – | N#Cc1ccc(CN2CCC(NC(=O)[C@H](Cc3ccc(O)cc3)NC(=O)Nc3ccc(C(=O)N4CCOCC4)cc3)C2)cc1 (some centres undefined) |
| 5.90 | 7.80 | 7.80 | – | – | – | – | – | CCOC(=O)c1ccc(NC(=O)N[C@@H](Cc2ccc(N)cc2)C(=O)N[C@H]2CC[N+](C)(Cc3ccc4c(c3)OCO4)C2)cc1 (some centres undefined) |
| < 5.50 | 6.60 | 5.90 | – | – | – | – | – | CC(C)COC(=O)c1ccc(NC(=O)N[C@@H](Cc2ccc(O)cc2)C(=O)NC2CCN(Cc3ccc(O)cc3)C2)cc1 (some centres undefined) |
| 7.40 | 8.00 | 8.20 | – | – | – | – | – | CCOC(=O)c1ccc(NC(=O)N[C@@H](Cc2ccc(Cl)cc2)C(=O)N[C@H]2CC[N+](C)(Cc3ccc4c(c3)OCO4)C2)cc1 (some centres undefined) |
| 6.00 | 8.00 | 7.00 | – | – | – | – | – | CCCOC(=O)c1ccc(NC(=O)N[C@@H](Cc2ccc(O)cc2)C(=O)NC2CCN(Cc3ccc(O)cc3)C2)cc1 (some centres undefined) |
| 6.00 | 8.30 | 7.10 | – | – | – | 100 | > 10 | CC(C)OC(=O)c1ccc(NC(=O)N[C@@H](Cc2ccc(O)cc2)C(=O)NC2CCN(Cc3ccc(O)cc3)C2)cc1 (some centres undefined) |
| 6.60 | 7.30 | 7.90 | – | – | – | – | – | CCOC(=O)c1ccc(NC(=O)N[C@@H](Cc2ccc(C#N)cc2)C(=O)N[C@H]2CC[N+](C)(Cc3ccc4c(c3)OCO4)C2)cc1 (some centres undefined) |
| – | – | – | 15.8 | 0.1 | 1.58 | 100 | > 10 | C=CC[N+]1(Cc2cccc(O)c2)CCC[C@H](NC(=O)[C@H](Cc2ccc(O)cc2)NC(=O)Nc2ccc(C(=O)OC(C)C)cc2)C1 (some centres undefined) |

| pIC50 [1] | pIC50 [2] | pIC50 [3] | Kb [1] [nM] | Kb [2] [nM] | Kb [3] [nM] | Selectivity ratio [4] | Selectivity ratio [5] | Structure (SMILES) |
| --- | --- | --- | --- | --- | --- | --- | --- | --- |
| < 5.50 | 7.00 | 5.80 | – | – | – | – | – | CC(C)NC(=O)c1ccc(NC(=O)N[C@@H](Cc2ccc(O)cc2)C(=O)NC2CCN(Cc3ccc(C#N)cc3)C2)cc1 (some centres undefined) |
| < 5.50 | 5.60 | < 5.50 | – | – | – | – | – | CNC(=O)c1ccc(NC(=O)N[C@@H](Cc2ccc(O)cc2)C(=O)NC2CCN(Cc3ccc(C#N)cc3)C2)cc1 (some centres undefined) |
| 7.50 | 7.90 | 8.40 | – | – | – | – | – | CCOC(=O)c1ccc(NC(=O)N[C@@H](Cc2ccc(Br)cc2)C(=O)N[C@H]2CC[N+](C)(Cc3ccc4c(c3)OCO4)C2)cc1 (some centres undefined) |
| < 5.50 | 6.50 | < 5.50 | – | – | – | – | – | CCNC(=O)c1ccc(NC(=O)N[C@@H](Cc2ccc(O)cc2)C(=O)NC2CCN(Cc3ccc(C#N)cc3)C2)cc1 (some centres undefined) |
| < 5.50 | 6.40 | < 5.50 | – | – | – | – | – | CCN(CC)C(=O)c1ccc(NC(=O)N[C@@H](Cc2ccc(O)cc2)C(=O)NC2CCN(Cc3ccc(C#N)cc3)C2)cc1 (some centres undefined) |
| 7.40 | 7.60 | 7.90 | – | – | – | – | – | CCOC(=O)c1ccc(NC(=O)N[C@@H](Cc2ccc(Cl)c(Cl)c2)C(=O)N[C@H]2CC[N+](C)(Cc3ccc4c(c3)OCO4)C2)cc1 (some centres undefined) |
| 6.70 | 8.20 | 7.40 | – | – | – | – | – | CCOC(=O)c1ccc(NC(=O)N[C@@H](Cc2ccc(O)cc2)C(=O)N[C@H]2CC[N+](C)(Cc3ccc(F)cc3)C2)cc1 (some centres undefined) |
| 7.00 | 7.80 | 8.00 | – | – | – | – | – | CCOC(=O)c1ccc(NC(=O)N[C@@H](Cc2ccc(C)cc2)C(=O)N[C@H]2CC[N+](C)(Cc3ccc4c(c3)OCO4)C2)cc1 (some centres undefined) |
| 5.70 | 6.90 | 7.00 | – | – | – | – | – | CCOC(=O)c1ccc(NC(=O)N[C@@H](Cc2ccccc2Cl)C(=O)N[C@H]2CC[N+](C)(Cc3ccc4c(c3)OCO4)C2)cc1 (some centres undefined) |
| – | – | – | 79.4 | 3.16 | 5.01 | – | – | CC(C)OC(=O)c1ccc(NC(=O)N[C@@H](Cc2ccc(O)cc2)C(=O)N[C@H]2CCC[N+]3(CCCCCC3)C2)cc1 |
| – | – | – | 39.8 | 0.631 | 5.01 | – | – | CC(C)OC(=O)c1ccc(NC(=O)N[C@@H](Cc2ccc(O)cc2)C(=O)N[C@H]2CCC[N+](CC3CC3)(CC3CC3)C2)cc1 |
| 7.90 | 7.80 | 8.30 | – | – | – | – | – | CCOC(=O)c1ccc(NC(=O)N[C@@H](Cc2ccc(-c3ccccc3)cc2)C(=O)N[C@H]2CC[N+](C)(Cc3ccc4c(c3)OCO4)C2)cc1 (some centres undefined) |
| 6.20 | 5.90 | 7.30 | – | – | – | – | – | CCOC(=O)c1ccc(NC(=O)N[C@@H](Cc2ccc(OC)c(OC)c2)C(=O)N[C@H]2CC[N+](C)(Cc3ccc4c(c3)OCO4)C2)cc1 (some centres undefined) |
| 7.00 | 8.70 | 8.60 | – | – | – | – | – | CCOC(=O)c1ccc(NC(=O)N[C@@H](Cc2ccc(O)cc2)C(=O)N[C@H]2CCC[N+](C)(Cc3ccc(F)cc3)C2)cc1 (some centres undefined) |
| 6.00 | 7.60 | 6.50 | – | – | – | – | – | COC(=O)c1ccc(NC(=O)N[C@@H](Cc2ccc(O)cc2)C(=O)NC2CCN(Cc3ccc(O)cc3)C2)cc1 (some centres undefined) |
| 6.80 | 8.20 | 7.40 | – | – | – | – | – | CCOC(=O)c1ccc(NC(=O)N[C@@H](Cc2ccc(O)cc2)C(=O)N[C@H]2CC[N+](C)(Cc3ccc4c(c3)OCO4)C2)cc1 (some centres undefined) |
| < 5.50 | 5.80 | < 5.50 | – | – | – | – | – | N#Cc1ccc(CN2CCC(NC(=O)[C@H](Cc3ccc(O)cc3)NC(=O)Nc3ccc(C(=O)NCc4ccccc4)cc3)C2)cc1 (some centres undefined) |
| < 5.50 | 6.30 | < 5.50 | – | – | – | – | – | CCCNC(=O)c1ccc(NC(=O)N[C@@H](Cc2ccc(O)cc2)C(=O)NC2CCN(Cc3ccc(C#N)cc3)C2)cc1 (some centres undefined) |
| 7.00 | 7.80 | 8.00 | – | – | – | – | – | CCOC(=O)c1ccc(NC(=O)N[C@@H](Cc2ccc(F)cc2)C(=O)N[C@H]2CC[N+](C)(Cc3ccc4c(c3)OCO4)C2)cc1 (some centres undefined) |
| 6.00 | 7.00 | 6.40 | – | – | – | – | – | O=C(Nc1ccc(C(=O)OCC2CC2)cc1)N[C@@H](Cc1ccc(O)cc1)C(=O)NC1CCN(Cc2ccc(O)cc2)C1 (some centres undefined) |
